The test has as its target T1, recombinant human secreted phospholipase A2 (Homo sapiens, UniProt P14555).
T1 sequence (P14555 21-144): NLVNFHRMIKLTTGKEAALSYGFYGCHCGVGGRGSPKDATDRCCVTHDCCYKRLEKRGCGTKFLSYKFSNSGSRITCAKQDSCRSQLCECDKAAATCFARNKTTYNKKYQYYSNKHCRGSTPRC
The experiment in a line: Chromogenic assay for inhibitors of recombinant human secreted phospholipase A2 (Assay Example 1). Type of test: biochemical. Particulars: diheptanoyl thio-PC substrate, pH 7.5, absorbance at 405 nm, triplicate. An excerpt: The following chromogenic assay procedure was used to identify and evaluate inhibitors of recombinant human secreted phospholipase A2. The assay described herein has been adapted for high volume screening using 96 well microtiter plates. A general description of this assay method is found in the article, “Analysis of Human Synovial Fluid Phospholipase A2 on Short Chain Phosphatidylcholine-Mixed Micelles: Development of a Spectrophotometric Assay Suitable for a Microtiterplate Reader”, by Laure J. Reynolds, Lori L. Hughes, and Edward A Dennis, Analytical Biochemistry, 204, pp. 190-197, 1992 (the disclosure of which is incorporated herein by reference):
REACTION BUFFER— • CaCl2·2H2O (1.47 g/L) • KCl (7.455 g/L) • Bovine Serum Albumin (fatty acid free) (1 g/L)(Sigma A-7030, product of Sigma Chemical Co., St. Louis Mo., USA) • TRIS HCl (3.94 g/L) • TRIS=(tris(hydroxymethyl)aminomethane) pH 7.5 (adjust with NaOH)
ENZYME BUFFER— • 0.05 NaOAc·3H2O, pH 4.5 • 0.2 NaCl • Adjust pH to 4.5 with acetic acid
DTNB— • 5,5′-dithiobis-2-nitrobenzoic acid
RACEMIC DIHEPTANOYL THIO—PC • racemic 1,2-bis(heptanoylthio)-1,2-dideoxy-sn-glycero-3-phosphorylcholine • TRITON X-100 prepare at 6.249 mg/ml in reaction buffer to equal […] • TRITON X-100 is a polyoxy ethylene non-ionic detergent supplied by Pierce Chemical Company, 3747 N. Meridian Road, Rockford, Ill. 61101.
REACTION MIXTURE— • A measured volume of racemic dipheptanoyl thio PC supplied in chloroform at a concentration of 100 mg/ml is taken to dryness and redissolved in 10 millimolar TRITON X-100 nonionic detergent aqueous solution. Reaction Buffer is added to the solution, then DTNB to give the Reaction Mixture.
The reaction mixture thus obtained contains 1 mM diheptanoly thio-PC substrate, 0.29 mm TRITON X-100 detergent, and 0.12 mm DTMB in a buffered aqueous solution at pH 7.5.
• 1. Add 0.2 ml reaction mixture to all wells; • 2. Add 10 ul test compound (or solvent blank) to appropriate wells, mix 20 seconds; • 3. Add 50 nanograms of sPLA2 (10 microliters) to appropriate wells; • 4. Incubate plate at 40° C. for 30 minutes; • 5. Read absorbance of wells at 405 nanometers with an automatic plate reader.
All compounds were tested in triplicate. Typically, compounds were tested at a final concentration of 5 ug/ml. […] Lack of color development at 405 nanometers evidenced inhibition. Compounds initially found to be active were reassayed to confirm their activity and, if sufficiently active, IC50 values were determined. […] In all cases, % inhibition measured at 405 nanometers generated by enzyme reactions containing inhibitors relative to the uninhibited control reactions was determined. Each sample was titrated in triplicate and result values were averaged for plotting and calculation of IC50 values. IC50 were determined by plotting log concentration versus inhibition values in the range from 10-90% inhibition.

The structures appear in SMILES notation.

As for `NC(=O)c1cccc2c1c1c(OCC(=O)NO)cccc1n2Cc1ccccc1` [Example 1, [[5-Carbamoyl-9-(phenylmethyl)carbazol-4-yl]oxy]-N-(hydroxy)acetamide], the IC50 is 18.3 nM.
For the compound `NC(=O)c1cccc2c1c1c(OCC(=O)NOCc3ccccc3)cc(-c3cccs3)cc1n2Cc1ccccc1` [Example 7, [[5-Carbamoyl-9-(phenylmethyl)-2-(thien-2-yl)carbazol-4-yl]oxy]-N-[(phenylmethyl)oxy]acetamide], the IC50 was 29 nM.
Turning to `CONC(=O)COc1cccc2c1c1c(C(N)=O)cccc1n2Cc1ccccc1` [Example 2, [[5-Carbamoyl-9-(phenylmethyl)carbazol-4-yl]oxy]-N-(methoxy)acetamide], the IC50 came to 18.7 nM.
Under `CCONC(=O)COc1cccc2c1c1c(C(N)=O)cccc1n2Cc1ccccc1` [Example 3, [[5-Carbamoyl-9-(phenylmethyl)carbazol-4-yl]oxy]-N-(ethoxy)acetamide] stands 19.3 nM; under `CON(C)C(=O)COc1cccc2c1c1c(C(N)=O)cccc1n2Cc1ccccc1` [Example 5, [[5-Carbamoyl-9-(phenylmethyl)carbazol-4-yl]oxy]-N-(methoxy)-N-(methyl)acetamide], 42.5 nM; under `NC(=O)c1cccc2c1c1c(OCC(=O)NOCc3ccccc3)cccc1n2Cc1ccccc1` [Example 4, [[5-Carbamoyl-9-(phenylmethyl)carbazol-4-yl]oxy]-N-[(phenylmethyl)oxy]acetamide], 17 nM.

Values taken from patent US6933313B2, “Substituted carbazoles as inhibitors of sPLA2” (Eli Lilly and Company, priority 2001, dated 2005).
